From patent US7230020B2, “11β-hydroxysteroid dehydrogenase inhibitors” (priority 2003, dated 2007) come the findings set out here.

One data set addresses T1, Human 11β HSD1 (Homo sapiens, UniProt P28845).
T1 construct: human hepatic microsomes were obtained from XenoTech, product H0610/Lot 0210078; tissue XenoTech H0610/Lot 0210078; host or cells: human liver (hepatic microsomes)
As to the kind of experiment: biochemical. Particulars: read-out: % inhibition of Human 11β HSD1 @10 μM typical sd ± 5% N = 2. It counts as biochemical. The protocol:
Standard Operating Procedure for the 11β-Hydroxysteroid Dehydrogenase Type 1 cortisol Radioimmunoassay (11β HSD1 Cortisol RIA).
30 mM Tris-HCL, pH 7.2 containing 1 mM EDTA.
50 mM Tris-HCL, pH 8, containing 0.1 M NaCl and 0.1% gelatin.
Prepare 10 mM stock solutions in 100% DMSO at 100 times the required assay concentration. Dilute into assay buffer 1 in 25. Also dilute neat DMSO 1 in 25 into assay buffer for controls.
Dilute this 1 in 50 into assay buffer.
Prepare NADPH as a 1.8 mg/ml solution in assay buffer.
Mix these 3solutions 1:1:1 to make a solution of sufficient volume for 25 μl additions to each sample. Add 0.5 μCi tritiated cortisone per 25 μl and mix the solution well.
Dilute stock 20 mg/ml solution 1 in 100 with assay buffer.
Dilute stock antibody solution to 17 μg/ml in antibody binding buffer.
Make a 20 mg/ml solution in antibody binding buffer and chill on ice.
To a u-bottom polypropylene 96 well plate add: • 25 μl compound dilution or diluted DMSO to controls, NSB's and blanks • 10 μl 1 mM GA in DMSO (enzyme stop solution) to blanks • 25 μl substrate mixture to all samples • 50 μl diluted microsomes to all samples • Incubate plate for 30 min at 37° C. shaking p0 Add 10 μl enzyme stop solution to all wells except the blanks • Add 100 μl antibody solution to all wells except the NSB's, add antibody binding buffer to these wells • Incubate at 37° C. for 1 h • Chill plate on ice for 15 min • Add 50 μl/well charcoal solution and mix with an 8-channel pipette (4-5 aspirations) • Chill the plate on ice • Centrifuge at 4° C., 2000×g for 15 min • Transfer 100 μl supernatant into an Optiplate, also add 25 μl substrate mixture to 2 empty wells to indicate counting efficiency • Add 200 μl Microscint-40 to all wells and count on a Topcount Radioimmunoassay
The 11β HSD1 enzyme assay was carried out following the standard operating procedure described above in u-bottom polypropylene 96 well plates or 1.5 ml Eppendorf tubes as indicated for each experiment. Subsequent to stopping the enzyme reaction, 100 μl antibody prepared in buffer 3 unless otherwise indicated was added to test samples and 100 μl buffer 3 was added to the NSB samples. The samples were incubated for 1 hour at 37° C. and the chilled on ice for 15 mins. Dextran coated charcoal (50 μl/sample) prepared to the indicated concentration in buffer 3 was added and the samples were mixed (vortex for tubes and aspiration 5 times with an 8-channel pipette for 96 well plates) and chilled for a further 10 min. The samples were centrifuged at 2000×g for 15 min at 4° C. to pellet the charcoal. Aliquots of the supernatant (100 μl) were transferred to an Optiplate and counted on the Topcount in 150-200 μl Microscint 40. In some experiments, aliquots of supernatant were transferred to scintillation vials and counted on the Tricarb LSC in 5 ml Ultima Gold scintillant.

What is called melting point is the temperature of the solid-liquid transition. Broadly, the inhibition is the share of the control response that was lost under treatment.

T1 sequence (P28845 whole entry): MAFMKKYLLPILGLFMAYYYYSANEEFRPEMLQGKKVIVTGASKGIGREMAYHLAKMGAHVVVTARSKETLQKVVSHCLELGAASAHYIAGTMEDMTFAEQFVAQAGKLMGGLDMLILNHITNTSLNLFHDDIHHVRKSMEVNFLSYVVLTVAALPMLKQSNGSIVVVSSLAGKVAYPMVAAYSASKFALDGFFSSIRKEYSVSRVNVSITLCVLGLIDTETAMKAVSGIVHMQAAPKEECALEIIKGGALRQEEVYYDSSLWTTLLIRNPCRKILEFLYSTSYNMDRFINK

Consider `CC1Nc2cc(NC(=O)c3ccc(-c4ccccc4)cc3)ccc2N1C` (centres unmarked), for which the melting point fell in the range of 272 to 274 °C.

Regarding `CCCc1ccc(C(=O)Nc2ccc3c(c2)nc(C)n3C)cc1`, the melting point was 214 to 218 °C. `Cc1nc2cc(N(C)C(=O)c3ccc(Cl)cc3Cl)ccc2n1C` came in with a melting point of 245 to 247 °C. In the case of `COc1ccc(C(=O)NCCc2cccs2)cc1`, the melting point lay within 109 to 111 °C. For `CCCc1ccc(C(=O)NCCc2cccs2)cc1`, the melting point lay within 97 to 99 °C. In turn, `O=C(NCCc1cccs1)c1cc(Cl)ccc1Cl` showed a melting point of 99 to 100 °C.

Take `Cc1nc2c(Cl)c(NC(=O)Cc3ccc(Cl)cc3Cl)ccc2s1`: the melting point is 257 to 258 °C. Still for that read-out and setting: in the case of `O=C(Nc1ccc2c(c1)CCC2=O)c1cc(Cl)ccc1Cl` it was 218 to 221 °C; in that of `COc1ccc(C(=O)Nc2ccc3c(c2)CCC3=O)cc1`, 237 to 238 °C; in that of `COc1cccc(C(=O)Nc2ccc(C(=O)c3ccccc3)cc2)c1`, 139 to 141 °C. As to `CCCc1ccc(C(=O)Nc2ccc(C(C)=O)cc2)cc1`, the melting point was 174 to 176 °C. The compound `COc1ccc(C(=O)Nc2ccc(C(C)=O)cc2)cc1` registered a melting point of 222 to 223 °C. Turning to `COc1cccc(C(=O)Nc2ccc(C(C)=O)cc2)c1`, the melting point lay in the range of 152 to 154 °C.

For `O=C(Nc1ccc2c(c1)CCCC2=O)c1cc(Cl)cc(Cl)c1`, the melting point was 226 to 228 °C.

Consider `COc1ccc(C(=O)Nc2ccc3c(c2)CCCC3=O)cc1`, for which the melting point lay within 163 to 166 °C. For the compound `CCCc1ccc(C(=O)Nc2ccc3sc(C)nc3c2)cc1`, the melting point lay in the range of 148 to 149 °C.

Take `CCCc1ccc(S(=O)(=O)Nc2ccc(OC)nc2)cc1`: the melting point lay in the range of 93 to 94 °C. Same read-out and setting: next, `Cc1cnc2cc(NS(=O)(=O)c3cccc(Cl)c3C)ccc2n1`: 163 to 164 °C; `COC(=O)c1cc2cc(NS(=O)(=O)c3cccc(Cl)c3C)ccc2o1`: 168 to 168.4 °C. Regarding `Cc1cnc2cc(NS(=O)(=O)c3cccc(Cl)c3C)ccc2n1` [compound 955], the inhibition at 10 µM on Human 11β HSD1 was found to be 60.8%. As to `CCCc1ccc(S(=O)(=O)Nc2ccc3nc(C)cnc3c2)cc1` [compound 956], the inhibition at 10 µM at Human 11β HSD1 turned out to be 64.8%. `Cc1c(Cl)cccc1S(=O)(=O)Nc1ccc2nccnc2c1` [compound 957]: the inhibition at 10 µM at Human 11β HSD1 came out at 55.5%. The same measure, in the same setting: in the case of `CCCc1ccc(S(=O)(=O)Nc2ccc3nccnc3c2)cc1` [compound 958] it was 58.1%. On the same count and under the same terms, in the case of `COC(=O)c1cc2cc(NS(=O)(=O)c3cccc(Cl)c3C)ccc2s1` [compound 971] it was 49.6%. Take `Cc1c(Cl)cccc1S(=O)(=O)Nc1ccc2occ(C)c2c1` [compound 972]: the inhibition at 10 µM at Human 11β HSD1 was 59.2%. As to `COC(=O)c1cc2cc(NS(=O)(=O)c3cccc(Cl)c3C)ccc2o1` [compound 973], the inhibition at 10 µM on Human 11β HSD1 turned out to be 33.1%. For the compound `Cc1c(Cl)cccc1S(=O)(=O)Nc1ccc2c(c1)C(=O)N(C)C2=O` [compound 979], at Human 11β HSD1, the inhibition at 10 µM stood at 54.1%. For `Cc1c(Cl)cccc1S(=O)(=O)Nc1ccc2c(C)cc(=O)oc2c1` [compound 980], on Human 11β HSD1, the inhibition at 10 µM is 61.2%. Still for that read-out and setting: in the case of `Cc1c(Cl)cccc1S(=O)(=O)Nc1ccc2[nH]ncc2c1` [compound 983] it was 41.9%; in that of `Cc1c(Cl)cccc1S(=O)(=O)Nc1ccc2c(cnn2C)c1` [compound 988], 56%. The same measure, in the same setting: next, `Cc1c(Cl)cccc1S(=O)(=O)Nc1ccc2c(c1)OCCO2` [compound 990]: 73.3%; `Cc1c(Cl)cccc1S(=O)(=O)Nc1ccc2scc(C)c2c1` [compound 1015]: 64.6%; `Cc1nc2cc(CSc3cc(Cl)ccc3Cl)ccc2s1` [compound 1031]: 45.6%. As to `Cc1c(Cl)cccc1S(=O)(=O)Nc1ccc2c(c1)-c1ccccc1C2=O` [compound 1033], the inhibition at 10 µM on Human 11β HSD1 was found to be 62.6%. Still for that read-out and setting: in the case of `Cc1cc2cc(NS(=O)(=O)c3cccc(Cl)c3C)ccc2o1` [compound 1038] it was 28.7%.
